From patent US12624034B2, “Non-covalent modifiers of AKT1 and uses thereof” (Terremoto Biosciences, Inc., priority 2023, dated 2026)

Experiments:
AKT1 WT = molecular target: T1, AKT1 WT (Homo sapiens, UniProt P31749); assay: Live cell AKT1 WT target engagement by NanoBRET competitive probe displacement in HEK293 cells; assay type: binding; details: NanoBRET live cell target engagement, HEK293 cells, 2 h at 37° C.; read-out: AKT1 WT IC50
T1 construct: expressed in transfected cells; host or cells: HEK293
T1 sequence (P31749 whole entry): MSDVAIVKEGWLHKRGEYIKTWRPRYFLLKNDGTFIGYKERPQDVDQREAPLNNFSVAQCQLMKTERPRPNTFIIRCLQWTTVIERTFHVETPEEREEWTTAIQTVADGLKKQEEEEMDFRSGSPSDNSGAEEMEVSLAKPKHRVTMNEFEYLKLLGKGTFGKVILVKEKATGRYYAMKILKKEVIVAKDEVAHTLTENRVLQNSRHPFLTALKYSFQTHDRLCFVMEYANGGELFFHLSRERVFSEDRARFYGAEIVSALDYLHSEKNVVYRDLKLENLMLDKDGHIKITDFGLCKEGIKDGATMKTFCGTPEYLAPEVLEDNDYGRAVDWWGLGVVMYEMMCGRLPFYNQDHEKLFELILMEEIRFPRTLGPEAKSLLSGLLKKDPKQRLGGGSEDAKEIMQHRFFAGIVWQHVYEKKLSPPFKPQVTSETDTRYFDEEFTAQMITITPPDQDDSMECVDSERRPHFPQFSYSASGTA
Procedure: (§1) Determining live cell AKT1 E17K, AKT1 WT, and AKT2 target engagement by NanoBRET competitive probe displacement. […] Briefly, HEK293 cells were transfected with plasmids encoding kinase-NanoLuciferase fusion proteins overnight. Cells were then treated with serial dilutions of compound and an ˜EC50 concentration of fluorescently-tagged ATP-competitive tracer (Promega). After incubation for 2 h at 37° C., luciferase substrate and extracellular luciferase inhibitor were added to all wells, and luminescent intensity at 460 nm and 600 nm were measured on a multimode plate-reader. The ratio of E600/E460 was calculated to give the tracer engagement signal (BRET). IC50 values were calculated by fitting BRET values to a log(inhibitor) vs. response Hill equation.

AKT2 = molecular target: T2, AKT2 (Homo sapiens, UniProt P31751); assay: Live cell AKT2 target engagement by NanoBRET competitive probe displacement in HEK293 cells; assay type: binding; details: NanoBRET live cell target engagement, HEK293 cells, 2 h at 37° C.; read-out: AKT2 IC50
T2 construct: expressed in transfected cells; host or cells: HEK293
T2 sequence (P31751 whole entry): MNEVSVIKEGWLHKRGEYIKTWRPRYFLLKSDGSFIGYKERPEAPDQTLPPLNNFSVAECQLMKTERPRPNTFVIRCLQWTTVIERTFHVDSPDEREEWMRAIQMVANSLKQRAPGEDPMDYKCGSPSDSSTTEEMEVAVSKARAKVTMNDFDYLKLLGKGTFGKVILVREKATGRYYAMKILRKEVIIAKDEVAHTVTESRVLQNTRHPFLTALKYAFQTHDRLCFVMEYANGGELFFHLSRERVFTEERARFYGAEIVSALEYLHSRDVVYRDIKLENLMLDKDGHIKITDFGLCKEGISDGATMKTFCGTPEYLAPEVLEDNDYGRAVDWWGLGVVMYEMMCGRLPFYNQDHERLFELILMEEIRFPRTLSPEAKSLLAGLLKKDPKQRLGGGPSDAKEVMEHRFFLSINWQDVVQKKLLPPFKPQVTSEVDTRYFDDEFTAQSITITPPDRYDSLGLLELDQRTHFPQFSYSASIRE
Procedure: as §1

Structure (SMILES) | IC50 (AKT1 WT) | IC50 (AKT2)
Cc1cc2ncn([C@H]3CCc4cc(-n5c(-c6cccnc6N)nc6ccc(-n7cccn7)nc65)ccc43)c(=O)c2cn1 [Compound 91, (S)-3-(5-(2-(2-aminopyridin-3-yl)-5-(1H-pyrazol-1-yl)-3H-imidazo[4,5-b]pyridin-3-yl)-2,3-dihydro-1H-inden-1-yl)-7-methylpyrido[4,3-d]pyrimidin-4(3H)-one] | 198 nM | 763 nM
Cc1ncc(C(=O)N[C@H]2CCc3cc(-n4c(-c5cccnc5N)nc5ccc(-n6nccn6)nc54)ccc32)c(C)n1 [Compound 92] | 42.8 nM | 1140 nM
Cc1ncccc1C(=O)N[C@H]1CCc2cc(-n3c(-c4cccnc4N)nc4ccc(-n5nccn5)nc43)ccc21 [Compound 93] | 38.8 nM | 1790 nM
Nc1ncccc1-c1nc2ccc(-n3cccn3)nc2n1-c1ccc2c(c1)CC[C@@H]2NC(=O)c1cnc2c(c1)CCC2 [Compound 94] | 7.33 nM | 18.8 nM
Nc1ncccc1-c1nc2ccc(-n3cccn3)nc2n1-c1ccc2c(c1)CC[C@@H]2NC(=O)c1ccc(N2CCOCC2)nc1 [Compound 95] | 6.98 nM | 9.41 nM
Cc1ncc(C(=O)N[C@H]2CCc3cc(-n4c(-c5cccnc5N)nc5ccc(-n6cccn6)nc54)ccc32)c(C)n1 [Compound 96] | 18.6 nM | 94.7 nM
Nc1ncccc1-c1nc2ccc(-n3cccn3)nc2n1-c1ccc2c(c1)CC[C@@H]2NC(=O)c1cnc(C(F)F)cc1F [Compound 97] | 21.9 nM | 83.5 nM
Nc1ncccc1-c1nc2ccc(-n3cccn3)nc2n1-c1ccc2c(c1)CC[C@@H]2NC(=O)c1ccc(CF)nc1 [Compound 98] | 13.2 nM | 52.6 nM
Cc1ncsc1C(=O)N[C@H]1CCc2cc(-n3c(-c4cccnc4N)nc4ccc(-n5cccn5)nc43)ccc21 [Compound 99] | 28.4 nM | 260 nM
Cc1ncccc1C(=O)N[C@H]1CCc2cc(-n3c(-c4cccnc4N)nc4c(C)cc(-n5cccn5)nc43)ccc21 [Compound 100] | 17.2 nM | 24.9 nM
Cc1cc(-n2cccn2)nc2c1nc(-c1cccnc1N)n2-c1ccc2c(c1)CC[C@@H]2NC(=O)c1ccc(C(F)F)nc1 [Compound 101] | 11.9 nM | 8.02 nM
Cc1cc(C(=O)N[C@H]2CCc3cc(-n4c(-c5cccnc5N)nc5ccc(-n6nccn6)nc54)ccc32)cnc1C(F)F [Compound 102] | 31.5 nM | 836 nM
Nc1ncccc1-c1nc2ccc(-n3cccn3)nc2n1-c1ccc2c(c1)CC[C@@H]2NC(=O)c1cccnc1C1CC1 [Compound 103] | 25.2 nM | 316 nM
CN(C)Cc1ncccc1C(=O)N[C@H]1CCc2cc(-n3c(-c4cccnc4N)nc4ccc(-n5cccn5)nc43)ccc21 [Compound 104] | 317 nM | > 10000 nM
C#Cc1cc(C(=O)N[C@H]2CCc3cc(-n4c(-c5cccnc5N)nc5ccc(-n6cccn6)nc54)ccc32)ccn1 [Compound 105] | 11.2 nM | 109 nM
Nc1ncccc1-c1nc2ccc(-n3cccn3)nc2n1-c1ccc2c(c1)CC[C@@H]2NC(=O)c1cnc2c(c1)COC2 [Compound 106] | 6.39 nM | 36 nM
Nc1ncccc1-c1nc2ccc(-n3nccn3)nc2n1-c1ccc2c(c1)CC[C@@H]2NC(=O)c1cccnc1C(F)F [Compound 107] | 118 nM | > 10000 nM
Nc1ncccc1-c1nc2ccc(-n3cccn3)nc2n1-c1ccc2c(c1)CC[C@@H]2NC(=O)c1cccnc1Cl [Compound 108] | 18.8 nM | 223 nM
CC(=O)N1CCC(N[C@H]2CCc3cc(-n4c(-c5cccnc5N)nc5ccc(-n6cccn6)nc54)ccc32)CC1 [Compound 109] | 257 nM | 5830 nM
Nc1ncccc1-c1nc2ccc(-n3cccn3)nc2n1-c1ccc2c(c1)CC[C@@H]2NC(=O)c1cccnc1C(F)(F)F [Compound 110] | 46.2 nM | 963 nM
Nc1ncccc1-c1nc2ccc(-n3cccn3)nc2n1-c1ccc2c(c1)CC[C@@H]2NC1COC1 [Compound 111] | 178 nM | 4500 nM
CN1Cc2cc(C(=O)N[C@H]3CCc4cc(-n5c(-c6cccnc6N)nc6ccc(-n7cccn7)nc65)ccc43)cnc2C1 [Compound 112] | 9.53 nM | 52.7 nM
C#Cc1ncccc1C(=O)N[C@H]1CCc2cc(-n3c(-c4cccnc4N)nc4ccc(-n5cccn5)nc43)ccc21 [Compound 113] | 21 nM | 537 nM
